Test results reported in patent publication US5023263A, “42-oxorapamycin” (American Home Products Corporation, priority 1990, dated 1991).
In brackets after ≈: the same amount, converted by molar mass.

Columns and labels:
pinch skin graft = assay: survival time of pinch skin graft; format: in vivo, mice (male DBA/2 donors, male BALB/c recipients)
Method: (§1) Immunosuppressive activity was evaluated in an in vitro standard pharmacological test procedure to measure lymphocyte proliferation (LAF) and in two in vivo standard pharmacological test procedures. The first in vivo procedure was a popliteal lymph node (PLN) test procedure which measured the effect of compounds of this invention on a mixed lymphocyte reaction and the second in vivo procedure evaluated the survival time of a pinch skin graft.
The second in vivo test procedure is designed to determine the survival time of pinch skin graft from male DBA/2 donors transplanted to male BALB/c recipients. The method is adapted from Billingham R. E. and Medawar P. B., J. Exp. Biol. 28:385-402, (1951). Briefly, a pinch skin graft from the donor is grafted on the dorsum of the recipient as a homograft, and an autograft is used as control in the same region. […] Untreated recipients serve as rejection control. The graft is monitored daily and observations are recorded until the graft becomes dry and forms a blackened scab. This is considered as the rejection day. The mean graft survival time (number of days ±S.D.) of the drug treatment group is compared with the control group.

[1] = tested on: Candida albicans ATCC 10231; assay: antifungal plate assay (MIC); format: cell-based; details: ATCC10231, plate disk assay
Method: (§2) The following represents the typical assay procedure used. Compound to be tested was placed on sterile dried 1/4" plate disks, and allowed to dry. Agar plates were seeded with fungi and allowed to solidify. The impregnated disks were placed on the seeded Agar surface and incubated for the time required for the particular culture. Results are expressed in MIC (μg/ml) to inhibit growth.

[2] = tested on: Candida albicans ATCC 38246; assay: antifungal plate assay (MIC); format: cell-based; details: ATCC38246, plate disk assay
Method: as §2

[3] = tested on: Candida albicans ATCC 38248; assay: antifungal plate assay (MIC); format: cell-based; details: ATCC38248, plate disk assay
Method: as §2

Candida albicans 3669 = assay: antifungal plate assay (MIC); format: cell-based; details: strain 3669, plate disk assay
Method: as §2

[4] = tested on: Candida albicans ATCC 38247; assay: antifungal plate assay (MIC); format: cell-based; details: ATCC38247, plate disk assay
Method: as §2

[5] = tested on: mixed lymphocyte reaction (popliteal lymph node); assay: in vivo popliteal lymph node (PLN) test procedure (mixed lymphocyte reaction); parameters: species or system mice (irradiated BALB/c spleen cells into C3H recipients); details: for PLN (ratio): Table 1, daily p.o. Day 0 to Day 4
Method: as §1
A mixed lymphocyte reaction (MLR) occurs when lymphoid cells from genetically distinct animals are combined in tissue culture. Each stimulates the other to undergo blast transformation which results in increased DNA synthesis that can be quantified by the incorporation of tritiated thymidine. Since stimulating a MLR is a function of disparity at Major Histocompatibility antigens, an in vivo popliteal lymph node (PLN) test procedure closely correlates to host vs. graft disease. Briefly, irradiated spleen cells from BALB/c donors are injected into the right hind foot pad of recipient C3H mice. The drug is given daily, p.o. from Day 0 to Day 4. On Day 3 and Day 4, tritiated thymidine is given i.p., b.i.d. On Day 5, the hind popliteal lymph nodes are removed and dissolved, and radioactivity counted. The corresponding left PLN serves as the control for the PLN from the injected hind foot. Percent suppression is calculated using the non-drug treated animals as allogenic control. […] Results are expressed by the following ratio: [formula]

IgE-like antibodies = details: in vivo; cited from earlier work
[6] = tested on: experimental allergic encephalomyelitis; details: model for multiple sclerosis; cited from earlier work
Candida albicans = details: in vitro and in vivo; cited from earlier work
transplant rejection = details: cited from earlier work
adjuvant arthritis = details: model for rheumatoid arthritis; cited from earlier work

| Structure (SMILES) | Skin Graft survival time (days + SD) (pinch skin graft; mean ± S.D., intraperitoneally) [days] | survival time of the skin graft, in words (pinch skin graft; vs rejection within 6-7 days without immunosuppressive agent) | MIC [1] [µg/mL] | MIC [2] [µg/mL] | MIC [3] [µg/mL] | MIC (Candida albicans 3669) [µg/mL] | MIC [4] [µg/mL] | PLN test result in words ([5]; interpretation of negative PLN ratio) | PLN (ratio) [5] | inhibition of formation of IgE-like antibodies (IgE-like antibodies) | effect in experimental allergic encephalomyelitis model [6] | antifungal activity (Candida albicans) | Percent suppression (PLN) ([5]; 6 mg/kg, p.o., vs non-drug treated allogenic control) [%] | inhibition of transplant rejection (transplant rejection) | effect in adjuvant arthritis model (adjuvant arthritis) |
| --- | --- | --- | --- | --- | --- | --- | --- | --- | --- | --- | --- | --- | --- | --- | --- |
| CO[C@H]1C[C@@H]2CC[C@@H](C)[C@@](O)(O2)C(=O)C(=O)N2CCCC[C@H]2C(=O)O[C@H]([C@H](C)C[C@@H]2CCC(=O)[C@H](OC)C2)CC(=O)[C@H](C)/C=C(\C)[C@@H](O)[C@@H](OC)C(=O)[C@H](C)C[C@H](C)/C=C/C=C/C=C/1C [42-oxorapamycin] | 10.17 ± 0.41 | increased survival time | 0.006 (≈ 0.00658 µM) | 0.05 (≈ 0.0548 µM) | 0.025 (≈ 0.0274 µM) | 0.05 (≈ 0.0548 µM) | 0.125 (≈ 0.137 µM) | may cause T cell proliferation | -0.93 | – | – | – | – | – | – |
| CO[C@H]1C[C@@H]2CC[C@@H](C)[C@@](O)(O2)C(=O)C(=O)N2CCCC[C@H]2C(=O)O[C@H]([C@H](C)C[C@@H]2CC[C@@H](O)[C@H](OC)C2)CC(=O)[C@H](C)/C=C(\C)[C@@H](O)[C@@H](OC)C(=O)[C@H](C)C[C@H](C)/C=C/C=C/C=C/1C [Rapamycin, rapamycin] | – | – | 0.003 (≈ 0.00328 µM) | 0.025 (≈ 0.0273 µM) | 0.006 (≈ 0.00656 µM) | 0.025 (≈ 0.0273 µM) | 0.003 (≈ 0.00328 µM) | – | 1.0 | effectively inhibited | effective | antifungal activity | 86 | effective in inhibiting transplant rejection | effective |
